The values below come from ChEMBL document CHEMBL1130475 (Bioorg Med Chem Lett, 1997).

Usually Ki stands for the equilibrium dissociation constant of an inhibitor or competing ligand from its target. A low value points to tighter binding.

One test deals with FK506 binding protein 12 (Gallus gallus, UniProt Q8QGU2). As to the kind of experiment: Inhibition of binding to FKBP12 receptor.
Test [1] is described as follows: Ability to promote neurite outgrowth against freshly isolated sensory neuronal cultures. It counts as functional. The settings on record: Gallus gallus; read-out: ED50 (the source's name).
Test [2] is described as follows: Tested for its ability to inhibit calcineurin phosphatase activity in standard in vitro assay; NI means no inhibition at >10 uM. It counts as functional.
In another test the test system is T-cell. As to the kind of experiment: Tested for its ability to block T-cell proliferation in standard in vitro assay; NI means no inhibition at >10 uM. Type of test: functional, cell-based.

Sequence of FK506 binding protein 12 (Q8QGU2 whole entry): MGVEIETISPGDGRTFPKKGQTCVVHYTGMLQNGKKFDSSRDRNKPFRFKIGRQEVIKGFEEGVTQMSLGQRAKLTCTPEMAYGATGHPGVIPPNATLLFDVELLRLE

Turning to `CCC(C)(C)C(=O)C(=O)N1CCCCC1C(=O)OCCCCc1ccc(OC)cc1` (configuration not stated), on FK506 binding protein 12, the Ki is 60 nM. In addition, the EC50 in test [1] worked out at 43 nM.
In the case of `CCC(C)(C)C(=O)C(=O)N1CCCCC1C(=O)OCCCc1cc(OC)c(OC)c(OC)c1` (configuration not stated), the Activity entry (in test [2]; with T-cell) was “No inhibition” throughout. The same molecule showed a Ki on FK506 binding protein 12 of 25 nM. The EC50 in test [1] is 80 nM.
On to `CC(C)(C)C(=O)C(=O)N1CCCCC1C(=O)OCCCc1ccccc1` (configuration not stated), for which the EC50 in test [1] is 0.085 nM.
On to `CCC(C)(C)C(=O)C(=O)N1CCCCC1C(=O)OCCCc1ccccc1` (configuration not stated), for which the Activity entry (in test [2]; in the test on T-cell) was “No inhibition” throughout. Further, on FK506 binding protein 12, the Ki amounted to 250 nM. In test [1], the EC50 came to 300 nM.
In the case of `O=C(C(=O)N1CCCCC1C(=O)OC(CCCc1ccccc1)CCCc1ccccc1)c1ccccc1` (configuration not stated), the affinity on FK506 binding protein 12 corresponds to a Ki of 3 nM. Besides, the EC50 in test [1] came to 0.15 nM.
`CCC(C)(C)C(=O)C(=O)N1CCCCC1C(=O)OC(CCCc1ccccc1)CCCc1ccccc1` (configuration not stated): the EC50 in test [1] turned out to be 5 nM.
Still for that read-out and setting: the result for `CC(C)(C)C(=O)C(=O)N1CCCCC1C(=O)OC(CCCc1ccccc1)CCCc1ccccc1` (configuration not stated) reads 0.085 nM.
In turn, `CCC(C)(C)C(=O)C(=O)N1CCCCC1C(=O)OC(CCCc1ccccc1)CCc1ccc(OC)cc1` (configuration not stated) came in with a Ki on FK506 binding protein 12 of 15 nM. Further, the EC50 in test [1] amounted to 0.17 nM.
Taken in the same sequence, the figures for `CCOC(=O)C1CCCCN1C(=O)C(=O)C(C)(C)CC` (configuration not stated) were 1300 nM and 5000 nM.
For `COc1ccc(CCCCOC(=O)C2CCCCN2C(=O)C(=O)C(C)(C)C)cc1` (configuration not stated), in that order: 24 nM and 0.002 nM.
On to `CCC(C)(C)C(=O)C(=O)N1CCCCC1C(=O)OC(CCc1ccccc1)CCc1ccccc1` (configuration not stated), for which the EC50 in test [1] is 0.016 nM.
As for `CCOC(=O)C1CCCCN1C(=O)C(=O)OC` (configuration not stated), the Ki at FK506 binding protein 12 was > 10000 nM. The EC50 in test [1] was > 10000 nM.
As for `COc1cc(C(=O)C(=O)N2CCCCC2C(=O)OC(CCCc2ccccc2)CCCc2ccccc2)cc(OC)c1OC` (configuration not stated), in test [1], the EC50 is 0.61 nM.
`CCC(C)(C)C(=O)C(=O)N1CCCCC1C(=O)OCCC(c1ccccc1)c1ccccc1` (configuration not stated) yielded a Ki on FK506 binding protein 12 of 8.3 nM. Besides, in test [1], the EC50 was 0.029 nM.
